Data reported in ChEMBL document CHEMBL5214935, “Discovery of a potent M5 antagonist with improved clearance profile. Part 1: Piperidine amide-based antagonists” (Bioorg Med Chem Lett, 2022).
Residue numbers refer to the chain shown, from its start.

Tests used:
[1] = molecular target: T1, Muscarinic acetylcholine receptor M1 (Rattus norvegicus) (UniProt P08482); test: Antagonist activity at rat muscarinic M1 receptor expressed in CHO cells assessed as minimal acetylcholine response by calcium mobilisation assay relative to control; assay type: functional, cell-based; set-up: scale not given: the % may be the effect or the level left; conditions: filed as antagonist
T1 sequence (whole entry): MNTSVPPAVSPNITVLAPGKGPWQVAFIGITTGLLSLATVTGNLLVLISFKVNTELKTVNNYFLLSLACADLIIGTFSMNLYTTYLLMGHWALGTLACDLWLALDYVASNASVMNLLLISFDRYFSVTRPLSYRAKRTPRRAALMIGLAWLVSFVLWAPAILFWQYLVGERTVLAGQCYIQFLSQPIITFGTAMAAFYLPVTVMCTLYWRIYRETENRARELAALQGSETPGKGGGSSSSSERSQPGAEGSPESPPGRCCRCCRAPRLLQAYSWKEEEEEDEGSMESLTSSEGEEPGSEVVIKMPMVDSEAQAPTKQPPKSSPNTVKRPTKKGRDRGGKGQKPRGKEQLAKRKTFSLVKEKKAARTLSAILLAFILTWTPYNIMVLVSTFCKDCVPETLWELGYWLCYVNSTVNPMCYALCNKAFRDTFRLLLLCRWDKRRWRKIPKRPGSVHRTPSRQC

[2] = molecular target: T2, Muscarinic acetylcholine receptor M5 (Homo sapiens) (UniProt P08912); test: Antagonist activity at human muscarinic M5 receptor expressed in CHO cells assessed as minimal acetylcholine response by calcium mobilisation assay relative to control; assay type: functional, cell-based; set-up: concentration or dose not given beside the values
T2 sequence (whole entry): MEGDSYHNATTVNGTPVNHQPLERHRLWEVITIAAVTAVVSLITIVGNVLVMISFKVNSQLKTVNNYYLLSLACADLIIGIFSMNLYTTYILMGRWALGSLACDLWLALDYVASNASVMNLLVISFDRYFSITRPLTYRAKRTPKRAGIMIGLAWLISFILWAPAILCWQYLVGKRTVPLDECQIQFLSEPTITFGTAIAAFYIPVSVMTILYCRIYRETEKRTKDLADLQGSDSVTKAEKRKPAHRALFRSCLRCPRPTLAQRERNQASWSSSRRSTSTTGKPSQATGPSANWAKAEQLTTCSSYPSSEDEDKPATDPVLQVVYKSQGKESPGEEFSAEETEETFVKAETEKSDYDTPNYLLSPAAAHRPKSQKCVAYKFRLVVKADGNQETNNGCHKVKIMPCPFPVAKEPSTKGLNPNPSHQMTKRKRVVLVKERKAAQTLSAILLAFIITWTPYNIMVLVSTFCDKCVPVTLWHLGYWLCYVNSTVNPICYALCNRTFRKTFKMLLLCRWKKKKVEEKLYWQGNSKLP

[3] = Intrinsic clearance in human; assay type: ADME
[4] = Intrinsic clearance in rat; assay type: ADME
[5] = molecular target: T3, Muscarinic acetylcholine receptor M5 (Rattus norvegicus, UniProt P08911); test: Antagonist activity at rat muscarinic M5 receptor; assay type: functional
T3 sequence (P08911 whole entry): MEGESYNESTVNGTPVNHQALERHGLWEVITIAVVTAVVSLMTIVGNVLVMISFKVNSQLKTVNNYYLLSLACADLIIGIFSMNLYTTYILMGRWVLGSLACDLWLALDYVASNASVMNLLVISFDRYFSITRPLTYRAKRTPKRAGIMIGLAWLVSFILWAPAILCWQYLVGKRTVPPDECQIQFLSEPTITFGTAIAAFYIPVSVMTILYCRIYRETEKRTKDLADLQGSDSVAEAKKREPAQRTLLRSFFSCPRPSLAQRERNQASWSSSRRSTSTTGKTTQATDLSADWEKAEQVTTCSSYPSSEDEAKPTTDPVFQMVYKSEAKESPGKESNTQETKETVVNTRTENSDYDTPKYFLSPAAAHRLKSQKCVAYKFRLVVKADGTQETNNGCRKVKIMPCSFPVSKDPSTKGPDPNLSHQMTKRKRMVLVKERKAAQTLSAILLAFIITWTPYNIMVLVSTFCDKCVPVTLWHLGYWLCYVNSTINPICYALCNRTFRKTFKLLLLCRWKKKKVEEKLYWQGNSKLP

[6] = molecular target: T4, Muscarinic acetylcholine receptor M5 (Rattus norvegicus) (UniProt P08911); test: Antagonist activity at rat muscarinic M5 receptor assessed as minimal acetylcholine response relative to control; assay type: functional; set-up: scale not given: the % may be the effect or the level left; conditions: filed as antagonist
T4 sequence (whole entry): T3 sequence (P08911 whole entry)

[7] = molecular target: T5, Muscarinic acetylcholine receptor M1 (Rattus norvegicus, UniProt P08482); test: Antagonist activity at rat muscarinic M1 receptor expressed in CHO cells in the presence of acetylcholine by calcium mobilisation assay; assay type: functional, cell-based
T5 sequence (P08482 whole entry): T1 sequence (whole entry)

[8] = molecular target: T6, Muscarinic acetylcholine receptor M1 (Homo sapiens, UniProt P11229); test: Antagonist activity at human muscarinic M1 receptor expressed in CHO cells in the presence of acetylcholine by calcium mobilisation assay; assay type: functional, cell-based
T6 sequence (P11229 whole entry): T1 sequence (whole entry) with V5A, S254T, S309P, K320R, G337A, V413I

[9] = molecular target: T7, Muscarinic acetylcholine receptor M1 (Homo sapiens) (UniProt P11229); test: Antagonist activity at human muscarinic M1 receptor expressed in CHO cells assessed as minimal acetylcholine response by calcium mobilisation assay; assay type: functional, cell-based; set-up: scale not given: the % may be the effect or the level left
T7 sequence (whole entry): T1 sequence (whole entry) with V5A, S254T, S309P, K320R, G337A, V413I

[10] = Unbound fraction in rat plasma; assay type: ADME, cell-free
[11] = Unbound fraction in human plasma; assay type: ADME, cell-free
[12] = Unbound fraction in rat brain; assay type: ADME, tissue-based
[13] = Clearance in rat plasma; assay type: ADME, cell-free
[14] = Volume of distribution at steady state in rat; assay type: ADME; conditions: in vivo, read-out: Vdss
[15] = Elimination half life in rat; assay type: ADME; conditions: in vivo, read-out: beta t1/2
P-glycoprotein (human) = test: Efflux ratio of permeability in MDCK-MDR1 cells expressing human P-glycoprotein; assay type: ADME, cell-based, Canis lupus familiaris; conditions: dog
[16] = Apparent permeability in MDCK-MDR1 cells; assay type: ADME, cell-based, Canis lupus familiaris; conditions: dog
[17] = molecular target: T8, Muscarinic acetylcholine receptor M5 (Homo sapiens, UniProt P08912); test: Antagonist activity at human muscarinic M5 receptor expressed in CHO cells in the presence of acetylcholine by calcium mobilisation assay; assay type: functional, cell-based
T8 sequence (P08912 whole entry): T2 sequence (whole entry)

[18] = molecular target: T6, Muscarinic acetylcholine receptor M1; test: Antagonist activity at human muscarinic M1 receptor; assay type: functional

Row | Structure (SMILES) | Activity ([2]; filed as antagonist) [%] | CLint scaled [3] [L/h/kg] | CLint scaled [4] [L/h/kg] | IC50 [17] [µM] | other results
1 | Cc1nn(C)cc1S(=O)(=O)N1CCC(C(=O)Nc2ccc3scnc3c2)CC1 | 2 | 0.3 | 2.7 | – | Activity [1]: 35%; IC50 [5]: 1.33 µM; Activity [6]: 4%; IC50 [7]: > 10 µM; IC50 [8]: > 10 µM; Activity [9]: 50%; Fu [10]: 0.03; Fu [11]: 0.14; fraction unbound [12]: 0.2; clearance [13]: 0.666 L/h/kg; Vd [14]: 0.61 L/kg; half-life [15]: 1.43 h; efflux ratio (P-glycoprotein (human)): 110; Papp [16]: 0.374 10^-6 cm/s
2 | Cc1ccc(S(=O)(=O)N2CCC(C(=O)Nc3ccc4scnc4c3)CC2)cn1 | 3 | 0.3 | 2.58 | – | –
3 | C[C@@H]1CN(S(=O)(=O)c2ccc3c(c2)CCO3)CC[C@@H]1C(=O)Nc1ccc2scnc2c1 (racemic) | 3 | 11.9 | 33 | 0.419 | –
4 | CN(C(=O)C1CCN(S(=O)(=O)c2ccc3c(c2)CCO3)CC1)c1ccc2scnc2c1 | – | – | – | – | Activity [2]: 51%
5 | O=C(Nc1ccc2scnc2c1)C1CCN(S(=O)(=O)c2ccc(Cl)s2)CC1 | – | – | – | 2.8 | IC50 [18]: > 10 µM
6 | Cc1ncc(S(=O)(=O)N2CC[C@H](C(=O)Nc3ccc4scnc4c3)[C@@H](F)C2)s1 (racemic) | 2 | 0.36 | 4.86 | 0.013 | Activity [1]: 3%; IC50 [7]: 0.3 µM; Fu [10]: 0.007; Fu [11]: 0.02; fraction unbound [12]: 0.06
7 | Cc1nn(C)cc1S(=O)(=O)N1CC[C@H](C(=O)Nc2ccc3scnc3c2)[C@@H](F)C1 (racemic) | 3 | 0.42 | 15.6 | 0.309 | IC50 [5]: 0.572 µM; Activity [6]: 3%; IC50 [8]: > 10 µM; Activity [9]: 51%; Fu [10]: 0.02; Fu [11]: 0.26; fraction unbound [12]: 0.17; efflux ratio (P-glycoprotein (human)): 110; Papp [16]: 0.431 10^-6 cm/s
8 | C[C@@H]1C[C@H](C(=O)Nc2ccc3scnc3c2)CCN1S(=O)(=O)c1ccc2c(c1)CCO2 (racemic) | 2 | 15.8 | 34.3 | 0.134 | –
9 | Cc1nc2cc(NC(=O)C3CCN(S(=O)(=O)c4ccc5c(c4)CCO5)CC3)ccc2s1 | 19 | 4.44 | 25.6 | 0.594 | –
10 | C[C@H]1CN(S(=O)(=O)c2ccc3c(c2)CCO3)CC[C@@H]1C(=O)Nc1ccc2scnc2c1 (racemic) | 3 | 4.74 | 30.4 | 1.53 | –
11 | O=C(Nc1ccc2scnc2c1)C1CCN(S(=O)(=O)c2ccc3c(c2)CCO3)CC1 | – | – | 22.4 | – | IC50 [5]: 0.249 µM; IC50 [18]: 2.14 µM
12 | O=C(Nc1ccc2scnc2c1)C1CCN(S(=O)(=O)c2ccc(Cl)nc2)CC1 | 3 | 1.26 | 3.72 | 0.168 | –
13 | Cn1ncc(S(=O)(=O)N2CC[C@H](C(=O)Nc3ccc4scnc4c3)[C@@H](F)C2)c1Cl (racemic) | 2 | 0.36 | 2.94 | 0.01 | Activity [1]: 3%; IC50 [7]: 0.11 µM; Fu [10]: 0.005; Fu [11]: 0.02; fraction unbound [12]: 0.05
14 | C[C@@H]1C[C@@H](C(=O)Nc2ccc3scnc3c2)CCN1S(=O)(=O)c1ccc2c(c1)CCO2 (racemic) | 3 | 6.84 | 31.2 | 0.094 | –
15 | CC1Cc2cc(S(=O)(=O)N3CCC(C(=O)Nc4ccc5scnc5c4)CC3)ccc2O1 (racemic) | 16 | – | – | > 10 | –
16 | O=C(Nc1ccc2snnc2c1)C1CCN(S(=O)(=O)c2ccc3c(c2)CCO3)CC1 | 10 | 6.48 | 48.2 | 0.143 | –
17 | CC1COc2ccc(S(=O)(=O)N3CCC(C(=O)Nc4ccc5scnc5c4)CC3)cc21 (racemic) | 3 | 15.8 | 61.3 | 0.109 | –
18 | O=C(Nc1ccc2scnc2c1)C1CCN(S(=O)(=O)c2ccc3ncsc3c2)CC1 | 2 | 2.16 | 4.86 | 0.266 | –
19 | O=C(Nc1ccc2scnc2c1)C1CCN(S(=O)(=O)c2ccc3ncccc3c2)CC1 | 2 | 1.2 | 12.7 | – | –
20 | O=C(Nc1ccc2cccnc2c1)C1CCN(S(=O)(=O)c2ccc3c(c2)CCO3)CC1 | 3 | 5.94 | 44.4 | – | –
21 | O=C(Nc1ccc2scnc2c1)C1CCN(S(=O)(=O)c2cccnc2)CC1 | 2 | 1.14 | 12.4 | 0.059 | –
